The test relates to P388 leukemia ip, CD2F1 mice, survival T/C. Nature of the test: NCI In Vivo Anticancer Drug Screen. Data for tumor model P388 Leukemia (intraperitoneal) in CD2F1 (CDF1) mice. Conditions: endpoint: median survival time, higher = longer survival. Summed up:
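Mice carrying the transplanted tumor received test compound or vehicle. Survival was recorded in each group, and the value is the treated-group measurement divided by that of the vehicle-treated control group.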

Setting [1] is: dose: 50.0 mg/kg/injection, schedule: Q01DX005 (ip), vehicle: saline with Tween-80.
Setting [2] is: dose: 100.0 mg/kg/injection, schedule: Q01DX005 (ip), vehicle: saline with Tween-80.
The mark [3] stands for this setting: dose: 200.0 mg/kg/injection, schedule: Q01DX005 (ip), vehicle: saline with Tween-80.
Setting [4] is: dose: 50.0 mg/kg/injection, schedule: Q01DX009 (ip), vehicle: saline with Tween-80.
[5] abbreviates: dose: 100.0 mg/kg/injection, schedule: Q01DX009 (ip), vehicle: saline with Tween-80.
Where [6] appears, read: dose: 100.0 mg/kg/injection, schedule: Q04DX003 (ip), vehicle: Klucel (hydroxypropylcellulose) (HPC).
The mark [7] stands for this setting: dose: 200.0 mg/kg/injection, schedule: Q04DX003 (ip), vehicle: Klucel (hydroxypropylcellulose) (HPC).
Setting [8] is: dose: 400.0 mg/kg/injection, schedule: Q04DX003 (ip), vehicle: Klucel (hydroxypropylcellulose) (HPC).
The mark [9] stands for this setting: dose: 25.0 mg/kg/injection, schedule: Q01DX009 (ip), vehicle: saline with Tween-80.

“And” between values parts separate entries of the source, which are not always exact repeats. Identical values can stand only once. Toxic doses and inconclusive results are not listed.

Take `Cc1[nH]c2ccc(N(C)C)cc2c(=O)c1CNCc1ccccc1`: the T/C (dose: 1.56 mg/kg/injection, schedule: Q01DX009 (ip), vehicle: saline with Tween-80) was 114 % of control; the T/C (dose: 3.13 mg/kg/injection, schedule: Q01DX009 (ip), vehicle: saline with Tween-80) is 107 % of control; the T/C (dose: 6.25 mg/kg/injection, schedule: Q01DX009 (ip), vehicle: saline with Tween-80) was 103 % of control and 96 % of control.

As to `CCOC(=O)c1oc2ccccc2c1CN(CCO)CCO`, the T/C under setting [1] is 98 % of control, the T/C under setting [2] was 100 % of control and the T/C under setting [3] was 105 % of control.

As for `CCc1nc(N)nc(N)c1-c1ccc(Cl)c(N=[N+]=[N-])c1`, the T/C is, setting by setting: (dose: 3.13 mg/kg/injection, schedule: Q01DX009 (ip), vehicle: distilled water + Tween-80) 99 % of control; (dose: 6.25 mg/kg/injection, schedule: Q01DX009 (ip), vehicle: distilled water + Tween-80) 102 % of control; (dose: 12.5 mg/kg/injection, schedule: Q01DX009 (ip), vehicle: distilled water + Tween-80) 107 % of control; (dose: 15.0 mg/kg/injection, schedule: Q01DX005 (ip), vehicle: Klucel (hydroxypropylcellulose) (HPC)) 100 % of control; (dose: 25.0 mg/kg/injection, schedule: Q01DX009 (ip), vehicle: distilled water + Tween-80) 110 % of control and 89 % of control; (dose: 30.0 mg/kg/injection, schedule: Q01DX005 (ip), vehicle: Klucel (hydroxypropylcellulose) (HPC)) 108 % of control. The T/C (dose: 50.0 mg/kg/injection, schedule: Q01DX009 (ip), vehicle: distilled water + Tween-80) is 109 % of control; the T/C (dose: 60.0 mg/kg/injection, schedule: Q01DX005 (ip), vehicle: Klucel (hydroxypropylcellulose) (HPC)) was 106 % of control and 116 % of control; the T/C (dose: 200.0 mg/kg/injection, schedule: Q01DX009 (ip), vehicle: distilled water + Tween-80) is 151 % of control.

For the molecule `COc1ccc2c(c1OC)C(=O)N1C2=Cc2c(cc3c(c2OC)OCO3)CC1N(C)C` (centres undefined), the T/C is, setting by setting: (dose: 60.0 mg/kg/injection, schedule: Q01DX005 (ip), vehicle: saline) 103 % of control; (dose: 120.0 mg/kg/injection, schedule: Q01DX005 (ip), vehicle: saline) 100 % of control.

`NCC(N)Cn1ccnc1` (centres undefined): the T/C is 93 % of control (dose: 50.0 mg/kg/injection, schedule: Q04DX003 (ip), vehicle: saline); 94 % of control (dose: 100.0 mg/kg/injection, schedule: Q04DX003 (ip), vehicle: saline); 95 % of control (dose: 200.0 mg/kg/injection, schedule: Q04DX003 (ip), vehicle: saline).

`NC(=S)N/N=C/c1ccc2c(c1)OCO2`: the T/C is 100 % of control under setting [4] and 100 % of control under setting [5].

Turning to `[N-]=[N+]=CC(=O)OCC1NC(=O)C(COC(=O)C=[N+]=[N-])NC1=O` (centres undefined), the T/C is 104 % of control and 102 % of control (dose: 12.5 mg/kg/injection, schedule: Q01DX009 (ip), vehicle: other); 113 % of control and 101 % of control (dose: 25.0 mg/kg/injection, schedule: Q01DX009 (ip), vehicle: other); 111 % of control and 120 % of control (dose: 100.0 mg/kg/injection, schedule: Q01DX009 (ip), vehicle: other); 95 % of control and 111 % of control (dose: 200.0 mg/kg/injection, schedule: Q01DX009 (ip), vehicle: other); 109 % of control and 104 % of control (dose: 3.1 micrograms/kg/injection, schedule: Q01DX009 (ip), vehicle: water); 98 % of control and 101 % of control (dose: 6.1 micrograms/kg/injection, schedule: Q01DX009 (ip), vehicle: water). For the same molecule, the T/C is, setting by setting: (dose: 12.2 micrograms/kg/injection, schedule: Q01DX009 (ip), vehicle: water) 114 % of control and 100 % of control; (dose: 24.4 micrograms/kg/injection, schedule: Q01DX009 (ip), vehicle: water) 104 % of control and 107 % of control; (dose: 48.8 micrograms/kg/injection, schedule: Q01DX009 (ip), vehicle: water) 100 % of control; (dose: 97.5 micrograms/kg/injection, schedule: Q01DX009 (ip), vehicle: water) 92 % of control and 97 % of control; (dose: 195.0 micrograms/kg/injection, schedule: Q01DX009 (ip), vehicle: water) 100 % of control and 96 % of control; (dose: 390.0 micrograms/kg/injection, schedule: Q01DX009 (ip), vehicle: water) 109 % of control and 105 % of control. Further, the T/C (dose: 780.0 micrograms/kg/injection, schedule: Q01DX009 (ip), vehicle: water) is 100 % of control.

As for `CC12CCC(CC1=O)C2(C)CC#N` (centres undefined), the T/C reads like this: (dose: 7.5 mg/kg/injection, schedule: Q01DX005 (ip), vehicle: saline) 101 % of control; (dose: 15.0 mg/kg/injection, schedule: Q01DX005 (ip), vehicle: saline) 100 % of control.

For `Cc1ccc(S(=O)(=O)N(Cc2ccc(Cl)cc2)S(=O)(=O)c2ccc(C)cc2)cc1`, the T/C reads like this: (dose: 25.0 mg/kg/injection, schedule: Q01DX009 (ip), vehicle: saline) 110 % of control; (dose: 50.0 mg/kg/injection, schedule: Q01DX009 (ip), vehicle: saline) 108 % of control; (dose: 100.0 mg/kg/injection, schedule: Q01DX009 (ip), vehicle: saline) 100 % of control; (dose: 200.0 mg/kg/injection, schedule: Q01DX009 (ip), vehicle: Klucel (hydroxypropylcellulose) (HPC)) 100 % of control.

Take `COc1cccc([N+]([O-])=NC#N)c1`: the T/C is 105 % of control (dose: 12.5 mg/kg/injection, schedule: Q04DX003 (ip), vehicle: Klucel (hydroxypropylcellulose) (HPC)); 115 % of control (dose: 25.0 mg/kg/injection, schedule: Q04DX003 (ip), vehicle: Klucel (hydroxypropylcellulose) (HPC)); 107 % of control and 90 % of control (dose: 50.0 mg/kg/injection, schedule: Q04DX003 (ip), vehicle: Klucel (hydroxypropylcellulose) (HPC)).

Regarding `CSc1nc(SC)c2c(CN=[N+]=[N-])c(Br)n(Cc3ccccc3)c2n1`, the T/C (dose: 3.13 mg/kg/injection, schedule: Q01DX001 (ip), vehicle: saline with Tween-80) was 98 % of control; the T/C (dose: 6.25 mg/kg/injection, schedule: Q01DX001 (ip), vehicle: saline with Tween-80) was 86 % of control; the T/C (dose: 25.0 mg/kg/injection, schedule: Q01DX001 (ip), vehicle: saline with Tween-80) was 86 % of control.

Consider `COc1ccc2c(c1)/C(=C/CCN(C)C)c1ccccc1S2`, for which the T/C runs as follows: (dose: 12.5 mg/kg/injection, schedule: Q04DX003 (ip), vehicle: saline) 113 % of control; (dose: 25.0 mg/kg/injection, schedule: Q04DX003 (ip), vehicle: saline) 109 % of control.

For `CCOP(O)(=S)OCC.[Tb]`, the T/C is 92 % of control under setting [6], 87 % of control under setting [7] and 90 % of control under setting [8].

Regarding `COc1cc2oc3cc(OC)c(OC)c(CC=C(C)C)c3c(=O)c2c(O)c1CC=C(C)C`, the T/C is 87 % of control (dose: 25.0 mg/kg/injection, schedule: Q01DX005 (ip), vehicle: Klucel (hydroxypropylcellulose) (HPC)); 100 % of control (dose: 50.0 mg/kg/injection, schedule: Q01DX005 (ip), vehicle: Klucel (hydroxypropylcellulose) (HPC)); 86 % of control and 97 % of control (dose: 100.0 mg/kg/injection, schedule: Q01DX005 (ip), vehicle: Klucel (hydroxypropylcellulose) (HPC)); 105 % of control (dose: 200.0 mg/kg/injection, schedule: Q01DX005 (ip), vehicle: Klucel (hydroxypropylcellulose) (HPC)).

For the molecule `O=C(O)Cc1ccc2c(c1O)C(=O)c1ccccc1C2=O`, the T/C is 98 % of control (dose: 12.5 mg/kg/injection, schedule: Q01DX005 (ip), vehicle: saline); 104 % of control (dose: 25.0 mg/kg/injection, schedule: Q01DX005 (ip), vehicle: saline); 112 % of control under setting [1]; 107 % of control (dose: 50.0 mg/kg/injection, schedule: Q01DX005 (ip), vehicle: saline).

For `C(=C\c1ccnc2c1ccc1ccccc12)/c1ccccc1`, the T/C by setting is: (dose: 12.5 mg/kg/injection, schedule: Q01DX005 (ip), vehicle: saline with Tween-80) 96 % of control; (dose: 25.0 mg/kg/injection, schedule: Q01DX005 (ip), vehicle: saline with Tween-80) 96 % of control; under setting [1], 90 % of control; under setting [2], 88 % of control; under setting [3], 88 % of control.

Consider `NOCc1cccc(Cl)c1`, for which the T/C by setting is: under setting [9], 87 % of control; under setting [5], 87 % of control.

`NC(=O)NC(N)=S`: the T/C under setting [9] is 100 % of control; the T/C under setting [4] was 105 % of control; the T/C under setting [5] was 99 % of control; the T/C (dose: 200.0 mg/kg/injection, schedule: Q01DX009 (ip), vehicle: saline with Tween-80) is 98 % of control.

With `CCN(CC)C(=O)/C(C)=C1/c2ccccc2S(=O)(=O)N1C`, the T/C by setting is: under setting [6], 109 % of control; under setting [7], 94 % of control; under setting [8], 98 % of control.

For the origin of these results see PubChem BioAssay AID330 (DTP/NCI, 2004).
